{
  "source": "patent US20190247376A1",
  "about": "“NICOTINIC ACETYLCHOLINE RECEPTOR AGONIST ATTENUATES ILC2-DEPENDENT AIRWAY HYPERREACTIVITY” (University of Southern California, priority 2016, published 2019)",
  "test_system": "human ILC2s",
  "assay": "In vitro culture of human ILC2s, IL-5 and IL-13 production",
  "type": "cell-based",
  "details": "agonist 10 μg mL−1; rh-IL-2, rh-IL-7, rh-IL-33; 24h",
  "protocol": "FIGS. 7A-7E: α7nAChR agonist prevents human ILC2s mediated AHR and allergic. (FIG. 7A) Human ILC2s were purified from PBMCs via FACS and cultured (10^4 cells per mL) in the presence of recombinant human IL-33 (20 ng mL^−1), IL-2 (10 ng mL^−1), and IL-7 (20 ng mL^−1), with or without α7nAChR agonist for 24h. In the right panel, data are presented as means of four individual donors. (FIG. 7B) Human peripheral-blood mononuclear cells were isolated via FACS and cultured in the presence or absence of rh-IL-2 (10 ng mL^−1) and rh-IL-7 (20 ng mL^−1) for 48 hours, then adoptively transferred into Rag2^−/− GC^−/− mice that were intranasally challenged with rm-IL-33 or PBS, with or without α7nAChR agonist (125 μg) on days 1-3. […]\nFor human peripheral ILC2s, peripheral blood mononuclear cells (PBMCs) were first isolated from human fresh blood by diluting the blood 1:1 in PBS, adding to SepMate™-50 separation tubes (STEMCELL Technologies Inc, Vancouver, Canada) prefilled with 15-mL Lymphoprep™ each (Axis-Shield, Oslo, Norway), and centrifuging at 1200 g for 15 minutes. […] On day 4, lung function was measured and BAL was performed and analyzed.\nMurine ILC2s were isolated from BALB/cByJ mice to >95% purity using the FACSARIA III cell sorter. […] Levels of cytokines were measured by ELISA (eBioscience), according to the manufacturer's instructions.",
  "data": [
    {"smiles": "COc1ccc(/C=C2\\CCCN=C2c2cccnc2)c(OC)c1", "note": "[GTS-21, 3-[(3E)-3-[(2,4-dimethoxyphenyl)methylidene]-5,6-dihydro-4H-pyridin-2-yl]pyridine]", "values": [
      {"measurement": "IL-5 production by human ILC2s", "value": "decreasing"},
      {"measurement": "IL-13 production by human ILC2s", "value": "decreasing"}
    ]}
  ]
}
